Reference: patent publication US9951064B2, “Azaindazole compounds as inhibitors of T790M containing EGFR mutants” (Genentech, Inc., priority 2013, dated 2018)
Where two headings read alike, the source gives them in different places.

How the values were obtained:
EGFR T790M L858R = target: T1, EGFR T790M L858R (Homo sapiens, UniProt P00533, L858R/T790M); assay: EGFR T790M L858R biochemical assay (Caliper mobility shift); details: 5 μM ATP; apparent Ki (Morrison fit) converted by Cheng-Prusoff, Km of ATP 1.3 μM
T1 construct: purchased Life Technologies PV4879
Summary of the method: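 Reactions run 30 minutes at room temperature (22 °C), stopped with 80 mM EDTA. Phosphorylated product and substrate separated electrophoretically and quantified by Caliper mobility shift.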

[1] = target: T2, phosphor-EGFR in H1975(L585R/T790M) mutant EGFR expressing cells (Homo sapiens, UniProt P00533, L858R/T790M); assay: H1975 pEGFR MSD cellular assay; type: cell-based; details: NCI-H1975 cells, serum starved, 1 hour compound incubation, pEGFR Tyr1068 MSD; read-out: HI975 pEGFR EC50
T2 construct: host or cells: NCI-H1975
Summary of the method: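 NCI-H1975 cells, 30,000/well, serum-starved overnight, then treated 1 hour at 37° C with serially diluted compounds in serum-free medium (0.5% DMSO). Lysates captured on anti-phospho-EGFR plates overnight at 4° C, detected with SULFO-TAG anti-total EGFR by electrochemiluminescence. Inhibition vs untreated controls; EC50 from 4-parameter logistic fit.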

EGFR del746-750 T790M = target: T3, EGFR del746-750 T790M (Homo sapiens, UniProt P00533, DEL746-750/T790M); assay: EGFR del746-750 T790M biochemical assay (Caliper mobility shift); details: 5 μM ATP; apparent Ki (Morrison fit) converted by Cheng-Prusoff, Km of ATP 2.1 μM; read-out: EGFR(T790M/d746-750) Ki
T3 construct: purchased Carna Biosciences 08-528
Description: The exemplified compounds described herein were tested according to the assay below. The enzyme data reported in Tables 4-5 is generally a representative of multiple experiments.
Reactions proceed for 30 minutes at room temperature (22° C.) and are terminated with 80 mM 2,2′,2″,2″′-(ethane-1,2-diyldinitrilo)tetraacetic acid (EDTA). Product is detected using the Caliper mobility shift detection method where product and substrate are electrophoretically separated and measured.

[2] = system: H1975 (EGFR T790M/L858R) cell proliferation; assay: H1975 proliferation assay (Cell Titer-Glo); type: cell-based; details: NCI-H1975 cells, 72 hour incubation, read-out: H1975 antiproliferative EC50
Description: H1975 Proliferation Assays
All cell culture reagents were purchased from Invitrogen/Gibco. Cells are cultured at 37° C. at 5% CO2 and split as recommended by ATCC.

T2 sequence (P00533 25-1210 T790M/L858R): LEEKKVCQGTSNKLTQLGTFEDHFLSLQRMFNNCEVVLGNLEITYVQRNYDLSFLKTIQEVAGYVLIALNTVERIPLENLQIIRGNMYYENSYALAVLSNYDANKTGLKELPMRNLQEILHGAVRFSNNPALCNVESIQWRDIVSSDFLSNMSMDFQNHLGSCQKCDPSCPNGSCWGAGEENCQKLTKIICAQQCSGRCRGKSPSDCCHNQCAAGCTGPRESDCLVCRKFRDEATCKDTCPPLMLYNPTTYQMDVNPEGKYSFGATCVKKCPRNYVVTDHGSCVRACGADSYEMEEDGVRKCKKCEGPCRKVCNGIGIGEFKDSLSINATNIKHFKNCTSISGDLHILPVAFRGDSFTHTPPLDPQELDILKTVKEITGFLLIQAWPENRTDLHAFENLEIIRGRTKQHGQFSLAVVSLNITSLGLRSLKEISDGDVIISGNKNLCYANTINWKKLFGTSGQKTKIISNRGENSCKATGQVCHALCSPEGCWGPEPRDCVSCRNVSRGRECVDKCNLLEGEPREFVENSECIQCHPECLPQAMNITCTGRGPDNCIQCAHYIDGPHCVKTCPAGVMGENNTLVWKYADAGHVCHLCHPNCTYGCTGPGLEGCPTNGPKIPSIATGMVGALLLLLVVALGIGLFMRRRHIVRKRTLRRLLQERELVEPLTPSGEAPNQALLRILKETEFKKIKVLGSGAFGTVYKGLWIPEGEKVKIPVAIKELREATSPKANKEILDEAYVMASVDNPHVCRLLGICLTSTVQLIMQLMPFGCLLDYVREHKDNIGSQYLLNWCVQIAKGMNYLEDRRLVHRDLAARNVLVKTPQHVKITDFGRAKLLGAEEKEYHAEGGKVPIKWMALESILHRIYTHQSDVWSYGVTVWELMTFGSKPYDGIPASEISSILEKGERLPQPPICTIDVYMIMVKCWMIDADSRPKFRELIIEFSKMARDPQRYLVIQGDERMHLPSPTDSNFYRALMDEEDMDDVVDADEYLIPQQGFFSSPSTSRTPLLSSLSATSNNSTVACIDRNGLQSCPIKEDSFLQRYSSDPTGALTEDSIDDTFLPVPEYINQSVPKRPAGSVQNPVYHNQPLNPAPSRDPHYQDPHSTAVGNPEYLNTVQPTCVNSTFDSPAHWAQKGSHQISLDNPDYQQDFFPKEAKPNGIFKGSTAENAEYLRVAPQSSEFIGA
T1 sequence (P00533 25-1210 T790M/L858R): as above
T3 sequence (P00533 with tags, fused parts or gaps DEL746-750/T790M limits assumed): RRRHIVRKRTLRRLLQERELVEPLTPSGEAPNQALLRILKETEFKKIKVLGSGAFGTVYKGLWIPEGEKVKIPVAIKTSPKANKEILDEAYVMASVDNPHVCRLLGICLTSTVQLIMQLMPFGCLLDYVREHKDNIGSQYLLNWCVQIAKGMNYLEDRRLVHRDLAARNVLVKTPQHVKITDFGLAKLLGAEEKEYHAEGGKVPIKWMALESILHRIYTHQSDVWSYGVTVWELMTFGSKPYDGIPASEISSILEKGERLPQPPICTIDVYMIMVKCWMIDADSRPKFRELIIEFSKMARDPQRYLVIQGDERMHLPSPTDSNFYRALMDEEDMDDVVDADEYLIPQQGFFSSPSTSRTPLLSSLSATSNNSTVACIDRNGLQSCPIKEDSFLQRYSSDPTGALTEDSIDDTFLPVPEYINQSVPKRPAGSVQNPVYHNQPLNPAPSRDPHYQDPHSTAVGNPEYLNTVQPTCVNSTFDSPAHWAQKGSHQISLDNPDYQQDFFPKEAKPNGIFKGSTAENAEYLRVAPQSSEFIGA

SMILES | Ki (EGFR T790M L858R) [nM] | EC50 [1] [nM] | Ki (EGFR del746-750 T790M) [nM] | EC50 ([2]; Homo sapiens, NCI-H1975, 72 h) [nM] | EC50 [2] [nM]
CC(C)n1nc(N2CCOCC2)c2cnc(Nc3ccnc(NCC(C)(C)S(C)(=O)=O)n3)cc21 [Example 100, N^4-(1-Isopropyl-3-morpholin-4-yl-1H-pyrazolo[4,3-c]pyridin-6-yl)-N^2-(2-methanesulfonyl-2-methylpropyl)pyrimidine-2,4-diamine] | 8.7 | 1060 | 7.2 | 1260 | –
CCN1CCN(c2nn(C(C)C)c3cc(Nc4ccnc(-c5cnn(S(=O)(=O)C6CC6)c5)n4)ncc23)CC1 [Example 118, N-(2-(1-(Cyclopropylsulfonyl)-1H-pyrazol-4-yl)pyrimidin-4-yl)-3-(4-ethylpiperazin-1-yl)-1-isopropyl-1H-pyrazolo[4,3-c]pyridin-6-amine] | 1.4 | 134 | 1.1 | 1010 | –
CCC(C)n1nc(N2C[C@@H](CO)NC2=O)c2cnc(Nc3ccnc(N4CCC(C)(O)CC4)n3)cc21 (mixture of isomers) [Example 176, (4S)-1-(1-sec-Butyl-6-(2-(4-hydroxy-4-methylpiperidin-1-yl)pyrimidin-4-ylamino)-1H-pyrazolo[4,3-c]pyridin-3-yl)-4-(hydroxymethyl)imidazolidin-2-one] | 3.3 | 3980 | 12.1 | > 10000 | –
CC(C)n1nc(N2CC(CC#N)C2)c2cnc(Nc3ccnc(-c4cnn(S(=O)(=O)C5CC5)c4)n3)cc21 [Example 121, 2-(1-(6-(2-(1-(Cyclopropylsulfonyl)-1H-pyrazol-4-yl)pyrimidin-4-ylamino)-1-isopropyl-1H-pyrazolo[4,3-c]pyridin-3-yl)azetidin-3-yl)acetonitrile] | 0.8 | 19.6 | 0.7 | 184 | –
CCS(=O)(=O)n1cc(-c2nccc(Nc3cc4c(cn3)c(NC3CCOC3)nn4C(C)C)n2)cn1 (stereo not shown) [Example 38, N6-(2-(1-(ethylsulfonyl)-1H-pyrazol-4-yl)pyrimidin-4-yl)-1-isopropyl-N3-(tetrahydrofuran-3-yl)-1H-pyrazolo[4,3-c]pyridine-3,6-diamine] | 1.1 | 40.8 | 2.4 | 272 | –
CC[C@@H](C)n1nc(N2CC[C@@H](O)C2)c2cnc(Nc3ccnc(N4CC[C@](C)(C(N)=O)C4)n3)cc21 (relative stereo) [Example 210, (S*)-1-(4-((1-((R*)-sec-Butyl)-3-((R)-3-hydroxypyrrolidin-1-yl)-1H-pyrazolo[4,3-c]pyridin-6-yl)amino)pyrimidin-2-yl)-3-methylpyrrolidine-3-carboxamide] | 3.1 | 1850 | 2.1 | 4050 | –
CCC(C)n1nc(N2CC3(COC3)C2)c2cnc(Nc3ccnc(N4CC[C@@H](O)[C@@H](F)C4)n3)cc21 (single isomer, unassigned) [Example 198, (3S,4R)-1-(4-((1-((S*)-sec-Butyl)-3-(2-oxa-6-azaspiro[3.3]heptan-6-yl)-1H-pyrazolo[4,3-c]pyridin-6-yl)amino)pyrimidin-2-yl)-3-fluoropiperidin-4-ol] | 1.5 | 16.4 | 3.1 | – | 348
CC(C)n1nc(N2CC3(CN(CC(F)(F)F)C3)C2)c2cnc(Nc3ccnc(-c4cnn(S(=O)(=O)C5CC5)c4)n3)cc21 [Example 126, N-(2-(1-(Cyclopropylsulfonyl)-1H-pyrazol-4-yl)pyrimidin-4-yl)-1-isopropyl-3-(6-(2,2,2-trifluoroethyl)-2,6-diazaspiro[3.3]heptan-2-yl)-1H-pyrazolo[4,3-c]pyridin-6-amine] | 5.3 | 80.1 | 4.6 | 1140 | –
CC(C)n1nc(N2CCC3(CCNC3=O)C2)c2cnc(Nc3ccnc(-c4cnn(S(=O)(=O)C5CC5)c4)n3)cc21 (stereo not shown) [Example 112, 7-(6-((2-(1-(Cyclopropylsulfonyl)-1H-pyrazol-4-yl)pyrimidin-4-yl)amino)-1-isopropyl-1H-pyrazolo[4,3-c]pyridin-3-yl)-2,7-diazaspiro[4.4]nonan-1-one] | 1.1 | 62.6 | 1 | 740 | –
CCC(C)n1nc(N2CCS(=N)(=O)CC2)c2cnc(Nc3ccnc(N4CCC(C)(O)CC4)n3)cc21 (stereo not shown) [Example 89, 4-[1-(sec-Butyl)-6-[[2-(4-hydroxy-4-methylpiperidin-1-yl)pyrimidin-4-yl]amino]-1H-pyrazolo[4,3-c]pyridin-3-yl]-1-imino-4-thiomorpholin-1-one] | 26.5 | 5260 | 46.9 | 9980 | –
CCC(C)n1nc(N2CCNC2=O)c2cnc(Nc3ccnc(N4CC[C@H](O)[C@H](F)C4)n3)cc21 (stereo partly drawn) [Example 195, 1-(1-(sec-Butyl)-6-((2-((3R,4S)-3-fluoro-4-hydroxypiperidin-1-yl)pyrimidin-4-yl)amino)-1H-pyrazolo[4,3-c]pyridin-3-yl)imidazolidin-2-one] | 1 | 44.9 | 3.1 | 208 | –
CC(C)n1nc(N2CCC(O)C2)c2cnc(Nc3ccnc(-c4cnn(S(=O)(=O)C5CC5)c4)n3)cc21 (stereo not shown) [Example 18, 1-(6-(2-(1-(Cyclopropylsulfonyl)-1H-pyrazol-4-yl)pyrimidin-4-ylamino)-1-isopropyl-1H-pyrazolo[4,3-c]pyridin-3-yl) pyrrolidin-3-ol] | 0.8 | 7.5 | 0.6 | 201 | –
CC(C)n1nc(N2CCC2)c2cnc(Nc3ccnc(-c4cnn(S(=O)(=O)C5CC5)c4)n3)cc21 [Example 54, 3-(azetidin-1-yl)-N-(2-(1-(cyclopropylsulfonyl)-1H-pyrazol-4-yl)pyrimidin-4-yl)-1-isopropyl-1H-pyrazolo[4,3-c]pyridin-6-amine] | 0.7 | 17.9 | 0.5 | 158 | –
CC[C@@H](C)n1nc(N2CC3(COC3)C2)c2cnc(Nc3ccnc(OCC(C)(C)S(C)(=O)=O)n3)cc21 [Example 96, [1-((R)-sec-Butyl)-3-(2-oxa-6-azaspiro[3.3]hept-6-yl)-1H-pyrazolo[4,3-c]pyridin-6-yl]-[2-(2-methanesulfonyl-2-methylpropoxy)pyrimidin-4-yl]amine] | 4.6 | 387 | 17.2 | 1240 | –
CC[C@H](C)n1nc(N2CC(C(C)(C)O)C2)c2cnc(Nc3ccnc(N4CC[C@@H](O)[C@@H](F)C4)n3)cc21 (relative stereo) [Example 194, (3S,4R)-1-(4-((1-((S*)-sec-Butyl)-3-(3-(2-hydroxypropan-2-yl)azetidin-1-yl)-1H-pyrazolo[4,3-c]pyridin-6-yl)amino)pyrimidin-2-yl)-3-fluoropiperidin-4-ol] | 1.5 | 171 | 3.5 | 429 | –
CCC(C)n1nc(N2CCCC2=O)c2cnc(Nc3ccnc(N4CC[C@@H](O)[C@@H](F)C4)n3)cc21 (stereo partly drawn) [Example 200, 1-(1-(sec-Butyl)-6-((2-((3S,4R)-3-fluoro-4-hydroxypiperidin-1-yl)pyrimidin-4-yl)amino)-1H-pyrazolo[4,3-c]pyridin-3-yl)pyrrolidin-2-one] | 1.2 | 75.4 | 2.6 | 300 | –
CCN1CCN(c2nn(C(C)C)c3cc(Nc4ccnc(-c5cnn(S(=O)(=O)C6CC6)c5)n4)ncc23)C1=O [Example 151, 1-(6-(2-(1-(Cyclopropylsulfonyl)-1H-pyrazol-4-yl)pyrimidin-4-ylamino)-1-isopropyl-1H-pyrazolo[4,3-c]pyridin-3-yl)-3-ethylimidazolidin-2-one] | 8.7 | 363 | 6.3 | 929 | –
CCC(C)n1nc(N2CC[C@H](C(N)=O)C2)c2cnc(Nc3ccnc(N4CCC(C)(O)CC4)n3)cc21 (stereo partly drawn) [Example 144, (3S)-1-(1-sec-Butyl-6-(2-(4-hydroxy-4-methylpiperidin-1-yl)pyrimidin-4-ylamino)-1H-pyrazolo[4,3-c]pyridin-3-yl)pyrrolidine-3-carboxamide] | 1.8 | 941 | 2.1 | 2200 | –
CC(C)n1nc(N2CC(C(=O)N3CC[C@@H](O)C3)C2)c2cnc(Nc3ccnc(-c4cnn(S(=O)(=O)C5CC5)c4)n3)cc21 [Example 164, (R)-(1-(6-(2-(1-(Cyclopropylsulfonyl)-1H-pyrazol-4-yl)pyrimidin-4-ylamino)-1-isopropyl-1H-pyrazolo[4,3-c]pyridin-3-yl)azetidin-3-yl)(3-hydroxypyrrolidin-1-yl)methanone] | 1.2 | 430 | 1.1 | 2520 | –
